Patent publication US10238676B2, “Application of ginsenoside RG3 in preparing medicine for preventing and/or treating dementia, and medicine for treating dementia” (priority 2013, dated 2019)

What was measured:
[1] = system: patients with Alzheimer's disease; assay: Revised Hasegawa dementia scale (HDS-R) scoring of patients with Alzheimer's disease; type: in vivo, human
Experimental: Both groups take medicine for 12 continuous weeks. 2 ml of cerebrospinal fluid is collected by lumbar puncture, and is stored at −80° C., the β-amyloid protein (Aβ) content is determined by using enzyme-linked immunosorbent assay (ELISA). A revised Hasegawa dementia scale (HDS-R) is used to score, and the scores before and after treatment are compared, increasing in scores means validness, and unchanging or decreasing in scores means invalidness. The enumeration data adopts χ^2 test, the comparison of measurement data adopts t-test, all data is processed by adopting SPSS12.0 statistical software.
Analysis on the clinical therapeutic effect of the two groups.

[2] = system: intracerebral cholinergic nerve system of rat model with Alzheimer's disease; assay: AChE positive nerve fiber density of cortex and hippocampal formation, rat model with Alzheimer's disease (D-galactose + IBO); type: in vivo, Wistar rats; details: AD model rats, Huperzine A 0.3 mg/kg/d, 6 weeks
Description: 60 Wistar rats each of which having the body weight of 300-500 g are randomly divided into 6 groups, with 10 in each group, and the groups are named a preliminary elder normal control group, a preliminary elder AD model group, a positive medicine Huperzine A group, and high-dose, medium-dose and low-dose of Ginsenoside Rg3 topical preparation groups according to different treatment methods, respectively. The rats are bred in separate cages, each holding 4-5 rats, with natural lighting and random drinking and feeding provided. Physiological saline is injected in the abdominal cavity and grain of each rat in the preliminary elder normal control group; Galactose intraperitoneal injection and IBO intracerebral injection are given to all rats in the preliminary elder AD model group, the positive medicine Huperzine A group, and the high-dose, medium-dose and low-dose Ginsenoside Rg3 topical preparation groups; while the rats in the Huperzine A group and the high-dose, medium-dose and low-dose of Ginsenoside Rg3 topical preparation groups are subjected to D-galactose injection for modeling, rat of each group is given Huperzine A 0.3 mg/kg/d and Ginsenoside Rg3 10, 5, 2.5 mg/kg/d respectively. Ginsenoside Rg3 is applied to both sides of the nose of each rat of Ginsenoside Rg3 topical preparation groups. All the rats are subjected to the medicines continuously for 6 weeks and then intracerebral bilateral Meynert nuclei injection is carried out. Reference is made to a rat cerebral stereotaxic atlas for Meynert nuclei localization, and localization coordinates are AP-0.8 mm, Late 2.6 mm and DV 8.2 mm During intracerebral injection, a rat is anesthetized with 3% pentobarbital sodium (30 mg/kg) and then immobilized to a cerebral stereotaxic apparatus, physiological saline dissolved IBO (injection 1 μl for each side containing 5 μg of IBO) or 1 μl normal saline is injected slowly into a Meynert nucleus, each side takes injection for 5 minutes, and needle retaining for 10 minutes, wherein all the rats are subjected to cerebral perfusion with 4% paraformaldehyde after modeling and are then immobilized for 24 hours, and the brain is put in a sucrose phosphate buffer until brain tissue blocks sink, the blocks are frozen in a incubator and serially sectioned to […] in thickness. The sections are subjected to acetycholinesterase (AChE) histochemical staining by methods recommended by Hedreen, et al. Observation is given to the frontal lobe, the parietal lobe, the occipital lobe and the entorhinal cortex (layer II) as well as parts in a hippocampal CA1 region of the hippocampal formation such as a stratum oriens, a stratum radiatum, a stratum lacunosum-moleculare and a stratum moleculare of dentate gyrus for observing their AChE positive nerve fiber densities, and the AChE positive nerve fiber densities are counted with a number of intersections of positive fibers with a standard grid by using a micrometer used for a microscope.
A significance level a is equal to 0.05.

[3] = system: rat blood-brain barrier; details: rats drenched with borneolum syntheticum paraffin oil solution; cited from earlier work
[4] = of 18 patients per group, 12 weeks

Structure (SMILES): COc1cc2c(cc1OC)C(=O)C(CC1CCN(Cc3ccccc3)CC1)C2 (centres unmarked) [Donepezil, donepezil, reference compound]
- effective rate (patients increased in HDS-R scores) ([1]; 18 AD patients per group, Rg3 oral liquid 10 mg/d or donepezil 5 mg/d, 12 weeks): 72.2%
- Scores of clinical symptom (HDS-R), post treatment ([1]; AD inpatients, n = 18, Rg3 oral liquid 10 mg/d or donepezil 5 mg/d orally, 12 weeks): 17.3 ± 9.6
- Scores of clinical symptom (HDS-R), before treatment ([1]; AD inpatients, n = 18 per group, baseline): 13.5 ± 4.2^Δ
- number of patients constant in scores [1, 4]: 3
- number of patients decreased in scores [1, 4]: 2
- number of patients increased in scores of clinical symptom [1, 4]: 13

Structure (SMILES): C/C=C1\[C@H]2C=C(C)C[C@]1(N)c1ccc(=O)[nH]c1C2 [Huperzine, Huperzine A, reference compound]
- N Entorhinal cortex AchE positive nerve fiber density [2]: 132.4 ± 19.2^# 10^2 · mm^−2
- N Frontal lobe AchE positive nerve fiber density [2]: 122.1 ± 16.1^## 10^2 · mm^−2
- N Occipital lobe AchE positive nerve fiber density [2]: 131.6 ± 9.0^Δ 10^2 · mm^−2
- Parietal lobe AchE positive nerve fiber density [2]: 108.7 ± 15.8^##Δ 10^2 · mm^−2
- N Stratum lacunosum-moleculare AchE positive nerve fiber density ([2]; hippocampal formation): 83.3 ± 9.6 10^2 · mm^−2
- N Stratum moleculare of dentate gyrus AchE positive nerve fiber density ([2]; hippocampal formation): 120.0 ± 10.7^# 10^2 · mm^−2
- N Stratum oriens AchE positive nerve fiber density ([2]; hippocampal formation): 138.7 ± 20.1 10^2 · mm^−2
- N Stratum radiatum AchE positive nerve fiber density ([2]; hippocampal formation): 121.1 ± 15.2 10^2 · mm^−2

Structure (SMILES): CC1(C)C2CCC1(C)C(O)C2 (centres unmarked) [borneolum syntheticum]
- time after drench at which tight junction changes start [3]: 4 h
- time at which tight junction changes reach peak [3]: 8 h
- time at which tight junction returns to normal [3]: 48 h
